In brackets after ≈: the same amount, converted by molar mass. Where two headings read alike, the source gives them in different places.
Key:
Staph. = test: Range of MIC for Staph. strains, including MRSA; conditions: Staphylococcus aureus, MRSA
E. coli GC 2271 = test: MIC, broth microdilution; conditions: Escherichia coli, GC2271, E. coli GC 2271
E. coli GC 2236 = test: MIC, broth microdilution; conditions: Escherichia coli, GC2236, E. coli GC 2236
E. faecium GC 2243 = test: MIC, broth microdilution; conditions: Enterococcus faecium, GC2243, E. faecium GC 2243
E. coli GC 2231 = test: MIC, broth microdilution; conditions: Escherichia coli, GC2231, E. coli GC 2231
S. aureus GC 6469 = test: MIC, broth microdilution; conditions: Staphylococcus aureus, GC6469, S. aureus GC 6469
E. coli GC 2232 = test: MIC, broth microdilution; conditions: Escherichia coli, GC2232, E. coli GC 2232
E. coli GC 2233 = test: MIC, broth microdilution; conditions: Escherichia coli, GC2233, E. coli GC 2233
S. aureus GC 6335 = test: MIC, broth microdilution; conditions: Staphylococcus aureus, GC6335, S. aureus GC 6335
P. aeruginosa GC 2214 = test: MIC, broth microdilution; conditions: Pseudomonas aeruginosa, GC2214, P. aeruginosa GC 2214
S. aureus GC 2216 = test: MIC, broth microdilution; conditions: Staphylococcus aureus, GC2216, S. aureus GC 2216
S. pyogenes GC 4563 = test: MIC, broth microdilution; conditions: Streptococcus pyogenes, GC4563, S. pyogenes GC 4563
S. aureus GC 6466 = test: MIC, broth microdilution; conditions: Staphylococcus aureus, GC6466, S. aureus GC 6466
E. coli GC 2270 = test: MIC, broth microdilution; conditions: Escherichia coli, GC2270, E. coli GC 2270
E. coli GC 2203 = test: MIC, broth microdilution; conditions: Escherichia coli, GC2203, E. coli GC 2203
E. coli = test: Range of MIC for E. coli strains; conditions: Escherichia coli
E. faecalis GC 2265 = test: MIC, broth microdilution; conditions: Enterococcus faecalis, GC2265, E. faecalis GC 2265
E. coli GC 3226 = test: MIC, broth microdilution; conditions: Escherichia coli, GC3226, E. coli GC 3226
E. faecium GC 4556 = test: MIC, broth microdilution; conditions: Enterococcus faecium, GC4556, E. faecium GC 4556
E. coli GC 2234 = test: MIC, broth microdilution; conditions: Escherichia coli, GC2234, E. coli GC 2234
[1] = read-out: Range of MIC, Staph (Mouse Serum)
[2] = read-out: Range of MIC, Staph (Water)
[3] = read-out: Range of MIC, Staph. (mouse serum)
[4] = read-out: Range of MIC, Staph. (water)
[5] = 20 h, read-out: Range of MIC, E. coli (Mouse Serum)
[6] = read-out: Range of MIC, E. coli (mouse serum)

SMILES: CCCN(CC(=O)Nc1cc(N(C)C)c2c(c1O)C(=O)C1=C(O)[C@]3(O)C(=O)C(C(N)=O)=C(O)[C@@H](N(C)C)[C@@H]3C[C@@H]1C2)C(=O)OCOC(=O)C1CCC1 [Example 7, ({[(2-{[(5aR,6aS,7S,10aS)-9-(aminocarbonyl)-4,7-bis(dimethylamino)-1,8,10a,11-tetrahydroxy-10,12-dioxo-5,5a,6,6a,7,10,10a,12-octahydrotetracen-2-yl]amino}-2-oxoethyl)(propyl)amino]carbonyl}oxy)methyl cyclobutanecarboxylate]
- MIC (Staph.; [1]): 0.5 to 4 µg/mL (≈ 0.687 to 5.5 µM)
- MIC (Staph.; [2]): 0.5 to 4 µg/mL (≈ 0.687 to 5.5 µM)
- MIC (Staph.; [3]): 0.5 to 4 µg/mL (≈ 0.687 to 5.5 µM)
- MIC (Staph.; [4]): 0.5 to 4 µg/mL (≈ 0.687 to 5.5 µM)
- MIC (E. coli GC 2271; Mouse Serum pre-incubation): 0.5 µg/mL (≈ 0.687 µM)
- MIC (E. coli GC 2271; Water pre-incubation): 4 µg/mL (≈ 5.5 µM)
- MIC (E. coli GC 2236; Mouse Serum pre-incubation): 0.25 µg/mL (≈ 0.344 µM)
- MIC (E. coli GC 2236; Water pre-incubation): 2 µg/mL (≈ 2.75 µM)
- MIC (E. faecium GC 2243; Mouse Serum pre-incubation): 0.25 µg/mL (≈ 0.344 µM)
- MIC (E. faecium GC 2243; Water pre-incubation): 0.12 µg/mL (≈ 0.165 µM)
- MIC (E. coli GC 2231; Mouse Serum pre-incubation): 2 µg/mL (≈ 2.75 µM)
- MIC (E. coli GC 2231; Water pre-incubation): 16 µg/mL (≈ 22 µM)
- MIC (S. aureus GC 6469; Mouse Serum pre-incubation): 2 µg/mL (≈ 2.75 µM)
- MIC (S. aureus GC 6469; Water pre-incubation): 4 µg/mL (≈ 5.5 µM)
- MIC (E. coli GC 2232; Mouse Serum pre-incubation): 0.5 µg/mL (≈ 0.687 µM)
- MIC (E. coli GC 2232; Water pre-incubation): 4 µg/mL (≈ 5.5 µM)
- MIC (E. coli GC 2233; Mouse Serum pre-incubation): 0.5 µg/mL (≈ 0.687 µM)
- MIC (E. coli GC 2233; Water pre-incubation): 4 µg/mL (≈ 5.5 µM)
- MIC (S. aureus GC 6335; Mouse Serum pre-incubation): 1 µg/mL (≈ 1.37 µM)
- MIC (S. aureus GC 6335; Water pre-incubation): 1 µg/mL (≈ 1.37 µM)
- MIC (P. aeruginosa GC 2214; Mouse Serum pre-incubation): 16 µg/mL (≈ 22 µM)
- MIC (P. aeruginosa GC 2214; Water pre-incubation): > 64 µg/mL
- MIC (S. aureus GC 2216; Mouse Serum pre-incubation): 0.5 µg/mL (≈ 0.687 µM)
- MIC (S. aureus GC 2216; Water pre-incubation): 0.5 µg/mL (≈ 0.687 µM)
- MIC (S. pyogenes GC 4563; Mouse Serum pre-incubation): 0.25 µg/mL (≈ 0.344 µM)
- MIC (S. pyogenes GC 4563; Water pre-incubation): 0.25 µg/mL (≈ 0.344 µM)
- MIC (S. aureus GC 6466; Mouse Serum pre-incubation): 0.5 µg/mL (≈ 0.687 µM)
- MIC (S. aureus GC 6466; Water pre-incubation): 0.5 µg/mL (≈ 0.687 µM)
- MIC (E. coli GC 2270; Mouse Serum pre-incubation): 0.5 µg/mL (≈ 0.687 µM)
- MIC (E. coli GC 2270; Water pre-incubation): 4 µg/mL (≈ 5.5 µM)
- MIC (E. coli GC 2203; Mouse Serum pre-incubation): 0.5 µg/mL (≈ 0.687 µM)
- MIC (E. coli GC 2203; Water pre-incubation): 4 µg/mL (≈ 5.5 µM)
- MIC (E. coli; [5]): 0.25 to 2 µg/mL (≈ 0.344 to 2.75 µM)
- MIC (E. coli; read-out: Range of MIC, E. coli (Water)): 2 to 16 µg/mL (≈ 2.75 to 22 µM)
- MIC (E. coli; [6]): 0.25 to 2 µg/mL (≈ 0.344 to 2.75 µM)
- MIC (E. coli; read-out: Range of MIC, E. coli (water)): 2 to 16 µg/mL (≈ 2.75 to 22 µM)
- MIC (E. faecalis GC 2265; Mouse Serum pre-incubation): 1 µg/mL (≈ 1.37 µM)
- MIC (E. faecalis GC 2265; Water pre-incubation): 2 µg/mL (≈ 2.75 µM)
- MIC (E. coli GC 3226; Mouse Serum pre-incubation): 0.5 µg/mL (≈ 0.687 µM)
- MIC (E. coli GC 3226; Water pre-incubation): 8 µg/mL (≈ 11 µM)
- MIC (E. faecium GC 4556; Mouse Serum pre-incubation): 0.5 µg/mL (≈ 0.687 µM)
- MIC (E. faecium GC 4556; Water pre-incubation): 1 µg/mL (≈ 1.37 µM)
- MIC (E. coli GC 2234; Mouse Serum pre-incubation): 1 µg/mL (≈ 1.37 µM)
- MIC (E. coli GC 2234; Water pre-incubation): 4 µg/mL (≈ 5.5 µM)

SMILES: CCCN(CC(=O)Nc1cc(N(C)C)c2c(c1O)C(=O)C1=C(O)[C@]3(O)C(=O)C(C(N)=O)=C(O)[C@@H](N(C)C)[C@@H]3C[C@@H]1C2)C(=O)OCOC(=O)c1ccc(F)cc1 [Example 8, ({[(2-{[(5aR,6aS,7S,10aS)-9-(aminocarbonyl)-4,7-bis(dimethylamino)-1,8,10a,11-tetrahydroxy-10,12-dioxo-5,5a,6,6a,7,10,10a,12-octahydrotetracen-2-yl]amino}-2-oxoethyl)(propyl)amino]carbonyl}oxy)methyl 4-fluorobenzoate]
- MIC (Staph.; [1]): 0.5 to 4 µg/mL (≈ 0.651 to 5.21 µM)
- MIC (Staph.; [2]): 1 to 8 µg/mL (≈ 1.3 to 10.4 µM)
- MIC (Staph.; [3]): 0.5 to 4 µg/mL (≈ 0.651 to 5.21 µM)
- MIC (Staph.; [4]): 1 to 8 µg/mL (≈ 1.3 to 10.4 µM)
- MIC (E. coli GC 2271; Mouse Serum pre-incubation): 1 µg/mL (≈ 1.3 µM)
- MIC (E. coli GC 2271; Water pre-incubation): 32 µg/mL (≈ 41.7 µM)
- MIC (E. coli GC 2236; Mouse Serum pre-incubation): 1 µg/mL (≈ 1.3 µM)
- MIC (E. coli GC 2236; Water pre-incubation): 32 µg/mL (≈ 41.7 µM)
- MIC (E. faecium GC 2243; Mouse Serum pre-incubation): 0.25 µg/mL (≈ 0.326 µM)
- MIC (E. faecium GC 2243; Water pre-incubation): 2 µg/mL (≈ 2.6 µM)
- MIC (E. coli GC 2231; Mouse Serum pre-incubation): 2 µg/mL (≈ 2.6 µM)
- MIC (E. coli GC 2231; Water pre-incubation): > 64 µg/mL
- MIC (S. aureus GC 6469; Mouse Serum pre-incubation): 2 µg/mL (≈ 2.6 µM)
- MIC (S. aureus GC 6469; Water pre-incubation): 8 µg/mL (≈ 10.4 µM)
- MIC (E. coli GC 2232; Mouse Serum pre-incubation): 1 µg/mL (≈ 1.3 µM)
- MIC (E. coli GC 2232; Water pre-incubation): 32 µg/mL (≈ 41.7 µM)
- MIC (E. coli GC 2233; Mouse Serum pre-incubation): 1 µg/mL (≈ 1.3 µM)
- MIC (E. coli GC 2233; Water pre-incubation): 32 µg/mL (≈ 41.7 µM)
- MIC (S. aureus GC 6335; Mouse Serum pre-incubation): 1 µg/mL (≈ 1.3 µM)
- MIC (S. aureus GC 6335; Water pre-incubation): 4 µg/mL (≈ 5.21 µM)
- MIC (P. aeruginosa GC 2214; Mouse Serum pre-incubation): 32 µg/mL (≈ 41.7 µM)
- MIC (P. aeruginosa GC 2214; Water pre-incubation): > 64 µg/mL
- MIC (S. aureus GC 2216; Mouse Serum pre-incubation): 0.5 µg/mL (≈ 0.651 µM)
- MIC (S. aureus GC 2216; Water pre-incubation): 4 µg/mL (≈ 5.21 µM)
- MIC (S. pyogenes GC 4563; Mouse Serum pre-incubation): 0.12 µg/mL (≈ 0.156 µM)
- MIC (S. pyogenes GC 4563; Water pre-incubation): 0.5 µg/mL (≈ 0.651 µM)
- MIC (S. aureus GC 6466; Mouse Serum pre-incubation): 0.5 µg/mL (≈ 0.651 µM)
- MIC (S. aureus GC 6466; Water pre-incubation): 1 µg/mL (≈ 1.3 µM)
- MIC (E. coli GC 2270; Mouse Serum pre-incubation): 1 µg/mL (≈ 1.3 µM)
- MIC (E. coli GC 2270; Water pre-incubation): 64 µg/mL (≈ 83.4 µM)
- MIC (E. coli GC 2203; Mouse Serum pre-incubation): 1 µg/mL (≈ 1.3 µM)
- MIC (E. coli GC 2203; Water pre-incubation): 32 µg/mL (≈ 41.7 µM)
- MIC (E. coli; [5]): 1 to 2 µg/mL (≈ 1.3 to 2.6 µM)
- MIC (E. coli; [6]): 1 to 2 µg/mL (≈ 1.3 to 2.6 µM)
- MIC (E. faecalis GC 2265; Mouse Serum pre-incubation): 2 µg/mL (≈ 2.6 µM)
- MIC (E. faecalis GC 2265; Water pre-incubation): 8 µg/mL (≈ 10.4 µM)
- MIC (E. coli GC 3226; Mouse Serum pre-incubation): 2 µg/mL (≈ 2.6 µM)
- MIC (E. coli GC 3226; Water pre-incubation): 64 µg/mL (≈ 83.4 µM)
- MIC (E. faecium GC 4556; Mouse Serum pre-incubation): 1 µg/mL (≈ 1.3 µM)
- MIC (E. faecium GC 4556; Water pre-incubation): 4 µg/mL (≈ 5.21 µM)
- MIC (E. coli GC 2234; Mouse Serum pre-incubation): 1 µg/mL (≈ 1.3 µM)
- MIC (E. coli GC 2234; Water pre-incubation): 32 µg/mL (≈ 41.7 µM)

— patent US20070049564A1 (Wyeth, priority 2005, published 2007)
